How the values were obtained:
Experiment in all cases: relative viability (nuclei count vs DMSO), 5 days (fraction); higher = more cells survive
[1] = compound: C1CNCCC1C2=CC(=NN2)C3=CC=NC=C3 + Nc1ncn([C@H]2C[C@H](O)[C@@H](CO)O2)c(=O)n1 [Decitabine] (partner 2 µM)
Procedure, shortened: (§1)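 Lung cancer cell lines, seeded in 1536-well plates, were treated the following day by pin tool with a single drug or with five library-drug doses (not always all listed) in √10 steps on top of a fixed anchor-drug dose. Cells were fixed and nuclei stained in one step after 5 days, and nuclei were counted. Relative viability is the nuclei count for treated wells divided by that for vehicle wells, reported as medians of duplicate plates.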

[2] = compound: C1CNCCC1C2=CC(=NN2)C3=CC=NC=C3 + COc1cccc2cc(-c3nc([C@H]4CC[C@H](C(=O)O)CC4)n4ncnc(N)c34)[nH]c12 [OSI-027] (partner 0.5 µM)
Procedure, shortened: as §1

[3] = compound: C[C@@H](N)c1ccc(C(=O)Nc2ccnc3[nH]ccc23)cc1 + CC1(C)CCC(c2ccc(Cl)cc2)=C(CN2CCN(c3ccc(C(=O)NS(=O)(=O)c4ccc(N[C@H](CCN5CCOCC5)CSc5ccccc5)c(S(=O)(=O)C(F)(F)F)c4)cc3)CC2)C1 [Navitoclax] (partner 0.5 µM)
Procedure, shortened: as §1

[4] = compound: C[C@@H](N)c1ccc(C(=O)Nc2ccnc3[nH]ccc23)cc1 + NC(=O)Nc1cc(-c2cccc(F)c2)sc1C(=O)N[C@H]1CCCNC1 [AZD7762] (partner 0.2 µM)
Procedure, shortened: as §1

Cell Line | relative viability ([1]; first compound 0.08 µM) | relative viability ([1]; first compound 0.8 µM) | relative viability ([1]; first compound 2.53 µM) | relative viability ([1]; first compound 8 µM) | relative viability ([2]; first compound 0.08 µM) | relative viability ([2]; first compound 0.8 µM) | relative viability ([2]; first compound 2.53 µM) | relative viability ([2]; first compound 8 µM) | relative viability ([3]; first compound 0.04 µM) | relative viability ([3]; first compound 0.1265 µM) | relative viability ([3]; first compound 0.4 µM) | relative viability ([3]; first compound 1.265 µM) | relative viability ([3]; first compound 4 µM) | relative viability ([4]; first compound 0.04 µM) | relative viability ([4]; first compound 0.1265 µM) | relative viability ([4]; first compound 0.4 µM) | relative viability ([4]; first compound 1.265 µM) | relative viability ([4]; first compound 4 µM)
NCI-H3122 | 0.421 | 0.453 | 0.417 | 0.521 | 0.856 | 1.02 | 1.05 | 0.981 | 1.05 | 1.01 | 0.981 | 0.976 | 0.989 | 1.13 | 0.982 | 1.06 | 1.06 | 0.955
NCI-H1395 | 0.705 | 0.714 | 0.751 | 0.755 | 0.603 | 0.57 | 0.71 | 0.694 | 1.04 | 1.32 | 1.11 | – | 0.876 | 0.396 | 0.391 | 0.395 | – | 0.39
NCI-H2009 | 0.374 | 0.4 | 0.343 | 0.37 | 0.761 | 0.699 | 0.749 | 0.725 | 1.03 | 1.13 | 1.05 | 1.01 | 0.801 | – | – | – | – | –
NCI-H1651 | 0.586 | 0.566 | 0.686 | 0.501 | 0.649 | 0.767 | 0.827 | 0.76 | 1.07 | 1 | 1.11 | 1.26 | 1.11 | 0.484 | 0.493 | 0.574 | 0.737 | 0.675
HARA | 0.471 | 0.524 | 0.762 | 0.432 | 0.552 | 0.524 | 0.627 | 0.404 | 1.14 | 1.2 | 1.19 | 1.27 | 0.889 | 0.275 | 0.266 | 0.3 | 0.965 | 0.311
NCI-H1944 | 0.426 | 0.431 | 0.414 | 0.415 | 0.41 | 0.413 | 0.546 | 0.423 | 1.05 | 1.01 | 1.06 | – | 0.876 | 0.479 | 0.542 | 0.611 | 0.798 | 0.606
Calu-6 | – | – | – | – | – | – | – | – | 0.849 | 1.02 | 0.855 | 0.836 | 0.678 | – | – | – | – | –
NCI-H1703 | – | – | – | – | – | – | – | – | 1.28 | 1.11 | 1.06 | – | 0.616 | – | 0.125 | 0.131 | – | 0.105
NCI-H1650 | 0.216 | 0.49 | 0.399 | 0.509 | 0.552 | 0.744 | 0.751 | 0.625 | 1.35 | 1.3 | 1.4 | 1.45 | 0.863 | – | – | – | – | –
NCI-H2342 | 0.634 | 0.709 | 0.685 | 0.819 | 0.627 | 0.577 | 0.634 | 0.674 | – | – | – | – | – | 0.508 | 0.643 | 0.534 | 0.611 | 0.584
COR-L23 | 0.424 | 0.429 | 0.516 | 0.47 | 0.691 | 1.01 | 0.761 | 0.73 | 1.03 | 1.16 | 0.886 | 0.766 | 0.481 | – | – | – | – | –
NCI-H1623 | – | – | – | – | 0.451 | 0.504 | 0.488 | 0.42 | – | – | – | – | – | – | – | – | – | –
NCI-H650 | 0.284 | 0.322 | 0.341 | 0.303 | 0.513 | 0.58 | 0.505 | 0.543 | – | – | – | – | – | – | 1.09 | 0.992 | – | 0.886
CAL-12T | – | – | – | – | 0.823 | 0.866 | 0.84 | 0.839 | 1.3 | 1.33 | 1.48 | 1.77 | 1.47 | 0.625 | 0.682 | 0.606 | 0.784 | 0.803
NCI-H2228 | – | – | – | – | 0.61 | 0.653 | 0.649 | 0.689 | 0.897 | 1.08 | 1.03 | 0.985 | 0.963 | – | – | – | – | –
NCI-H661 | 0.549 | 0.57 | 0.541 | 0.541 | 0.707 | 0.835 | 0.739 | 0.634 | – | – | – | – | – | – | – | – | – | –
SK-LU-1 | 0.571 | 0.646 | 0.674 | 0.638 | 0.386 | 0.346 | 0.346 | 0.342 | 0.922 | 0.786 | 0.778 | 0.633 | 0.503 | – | – | – | – | –
SW 1573 | – | 0.471 | 0.711 | 0.76 | – | 0.666 | 0.727 | 0.752 | 1.14 | 0.927 | 1.12 | 0.774 | 0.426 | – | – | – | – | –
SW 900 | 0.418 | – | 0.424 | 0.475 | 0.51 | 0.569 | 0.713 | 0.464 | – | – | – | – | – | 0.772 | 0.698 | 0.661 | 0.777 | 0.878
ABC-1 | 1.23 | 1.02 | 1.32 | 1.08 | 0.556 | 0.484 | 0.65 | 0.575 | – | – | – | – | – | – | 0.861 | 0.808 | – | 0.554
NCI-H1648 | 0.453 | 0.572 | – | 0.573 | 0.242 | 0.271 | 0.292 | 0.245 | – | – | – | – | – | 0.951 | 1.01 | 0.924 | 1.61 | 1.35
NCI-H2023 | 0.219 | 0.222 | 0.251 | 0.194 | 0.347 | 0.48 | 0.457 | 0.503 | 1.09 | 1.02 | 1.08 | 1.07 | 0.799 | – | – | – | – | –
SK-MES-1 | 0.29 | 0.436 | 0.397 | 0.339 | 0.51 | 0.565 | 0.624 | 0.593 | 1.4 | 1.39 | 1.34 | 1.33 | 1.14 | – | – | – | – | –
IA-LM | – | – | – | – | – | – | – | – | 0.799 | 0.93 | 0.929 | 1.03 | 0.989 | – | – | – | – | –
A549 | 0.208 | 0.282 | 0.302 | 0.146 | – | – | – | – | 1.23 | 1.31 | 1.18 | 1.21 | 0.714 | – | – | – | – | –
LCLC-103H | 0.767 | 0.735 | 0.755 | 0.642 | 0.432 | 0.485 | 0.447 | 0.457 | – | – | – | – | – | 0.709 | 0.77 | 0.757 | 0.658 | 0.522
NCI-H358 | 0.224 | 0.226 | 0.21 | 0.217 | 0.593 | 0.713 | 0.834 | 0.698 | – | – | – | – | – | 0.605 | 0.47 | 0.485 | 0.478 | 0.472

Source: the supplement of paper PMC10307832
